Four compounds from patent US20120316105A1, “Polymyxin Derivates Useful As Antibacterial Agents” (priority 2011, published 2012) can be followed below.

For series [1], the system named is PA-1646, polymyxin-resistant clinical isolate of Pseudomonas aeruginosa. The series is classed as cell-based. The procedure, abridged:
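Broth dilution MIC and bactericidal (MBC) testing per CLSI methods (M7-A8, M100-S20, M26-A) against polymyxin-resistant clinical P. aeruginosa isolate PA-1646. Compounds tested as trifluoroacetate salts, one as sulfate salt; values in mg/L.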

Series [2] has as its system AB-1649, polymyxin-resistant clinical isolate of Acinetobacter baumannii. The series is classed as cell-based. The essentials: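 Broth dilution MIC per CLSI against the polymyxin-resistant A. baumannii isolate, 2-fold dilutions, overnight incubation, visual read of lowest concentration inhibiting growth. Run in duplicate, lower value reported when within 2-fold; MBC per CLSI M26-A guideline.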

For series [3], the system named is AB-3167, clinical isolate of Acinetobacter baumannii. The series is classed as cell-based. The procedure, abridged: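 Broth dilution MIC per CLSI (M7-A8, M100-S20, M26-A for bactericidal), 2-fold dilution series, overnight incubation, visual read of lowest concentration inhibiting growth versus drug-free control. Duplicates run; lower value reported if within 2-fold, otherwise repeated. Compounds tested as trifluoroacetate salts; QC strains and reference compounds required in range.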

Series [4] concerns PA-1646, polymyxin-resistant clinical isolate of Pseudomonas aeruginosa. The series is classed as cell-based. The essentials: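 Broth dilution MIC per CLSI with 2-fold concentration steps, read visually after overnight incubation as lowest concentration inhibiting growth; duplicates within 2-fold, lower value reported, with QC strains and reference compounds. Compounds tested as trifluoroacetate salts, polymyxin B as sulfate.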
The source holds these as a separate data set.

Series [5] relates to Pseudomonas aeruginosa strain PA01. The class given is cell-based. The essentials: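 CLSI broth dilution against P. aeruginosa PA01 with two-fold concentration steps and overnight incubation; MIC is lowest concentration visibly inhibiting growth versus drug-free control, in mg/L. Compounds tested as trifluoroacetate salts, in duplicate, lower value reported if within 2-fold; control organisms and reference compounds included.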

For series [6], the system named is AB-1649, polymyxin-resistant clinical isolate of Acinetobacter baumannii. The class given is cell-based. The procedure, abridged:
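MIC and MBC were measured by CLSI broth dilution methods (M7-A8, M100-S20, M26-A) against a polymyxin-resistant clinical isolate and reported in mg/L. Compounds were tested as trifluoroacetate salts, with one exception tested as the sulfate.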
This is another data set of the same source.

In series [7] the test system is EC-1, mouse virulent strain of Escherichia coli. The series is classed as cell-based. The settings on record: E. coli EC-1; overnight incubation, lower of duplicate values; trifluoroacetate salt (Example 1 and PMB sulfate). The essentials: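 Broth dilution per CLSI with 2-fold concentration steps and overnight incubation. MIC is the lowest concentration visibly inhibiting growth versus drug-free control, run in duplicate with the lower value reported. Duplicates differing by >2-fold were repeated, and control strains and reference compounds had to fall within range.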

A short description of series [8]: Cytotoxicity assay (LDH release), hRPTEC. The series is classed as cell-based, human. The settings on record: human. The procedure, abridged:
(§1)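 hRPTEC grown 72 h in REGM, then exposed to compounds at 100, 67, 44, 30, 20 and 13 micromolar for 24 h at 37° C, 5% CO2. LDH released into supernatant measured; TC50 (micromolar) derived. Compounds tested as trifluoroacetate salts unless otherwise noted.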
In general terms: LDH leaks from cells whose membrane has failed.

Series [9] deals with Human Renal Proximal Tubule Epithelial cells (hRPTEC). In words: Cytotoxicity assay (LDH release), hRPTEC. The class given is cell-based. The essentials:
as §1

In series [10] the test system is KP-5016, ESBL+ clinical isolate of Klebsiella pneumoniae (SHV-5). In words: Minimum inhibitory concentration (MIC, CLSI), KP-5016. The series is classed as cell-based. The note with it: K. pneumoniae KP-5016; overnight incubation, lower of duplicate values; trifluoroacetate salt (Example 1 and PMB sulfate). The method, then:
(§2) Minimum bactericidal concentration (MBC, mg/L), minimum inhibitory concentration (MIC, mg/L), and human renal proximal tubule epithelial cell line cytotoxicity concentration 50% (hRPTEC, TC50, micromolar) for compounds of Formula I are listed in Table 2. The compounds of Formula I were tested as the corresponding trifluoroacetate salt except for Example 1 which was tested as the sulfate salt. For Table 2 below: PMB=polymyxin B as the sulfate salt (Bedford Laboratories, pharmaceutical grade); PMB1=polymyxin B1 as the trifluoroacetate salt; Nona=polymyxin B nonapeptide as the trifluoroacetate salt. PMB1 and Nona were prepared using the solid phase methodology described in the experimental section herein.
(§3) The in vitro antibacterial activity of compounds of Formula I was evaluated by MIC testing according to Clinical and Laboratory Standards Institute (CLSI). See: Clinical and Laboratory Standards Institute. Methods for Dilution Antimicrobial Susceptibility Tests for Bacteria that Grow Aerobically; Approved Standard-Eighth Edition. CLSI document M7-A8 [ISBN 1-56238-689-1]. Clinical and Laboratory Standards Institute, 940 West Valley Road, Suite 1400, Wayne, Pa. 19087-1898 USA, 2006; also Clinical and Laboratory Standards Institute. Performance Standards for Antimicrobial Susceptibility Testing; Twentieth Informational Supplement. CLSI document M100-S20 [ISBN 1-56238-716-2]. Clinical and Laboratory Standards Institute. Methods for Determining Bactericidal Activity of Antimicrobial Agents; Approved Guideline. CLSI document M26-A (ISBN 1-56238-384-1). CLSI, 940 West Valley Road, Suite 1400, Wayne, Pa. 19087-1898 USA, 1999.
(§4) The MIC determination is a standard laboratory method for evaluating the antibacterial activity of a compound. The MIC represents the lowest drug concentration that inhibits visible growth of bacteria following overnight incubation. […] Typically, the drug concentration range is broken down into 2-fold increments (e.g. 0.06 mg/L, 0.12 mg/L, 0.25 mg/L, 0.50 mg/L, 1.0 mg/L, etc.) and the various drug concentrations are all individually incubated overnight with approximately the same number of bacteria. The MIC is then determined by visually inspecting the drug effect at each concentration, and identifying the lowest drug concentration that has inhibited bacterial growth as compared to the drug free control. Typically, bacteria continue to grow at drug concentrations lower than the MIC and don't grow at concentrations at and above the MIC.
(§5) The MIC values described in Table 2 below were derived from assays wherein each test compound was evaluated in duplicate. In cases where the duplicate values varied by 0-2-fold, the lower of the two values was reported below. Generally speaking, if the duplicate values varied by more than 2-fold, the assay was considered non-valid and was repeated until the variation between duplicate runs was ≦2-fold. In line with the CLSI guidelines referred to above, both control organisms and reference compounds were utilized in each MIC assay to provide proper quality control. MIC values generated with these control organisms and reference compounds were required to fall within a defined range for the assay to be considered valid and be included herein. Those skilled in the art will recognize that MIC values can and do vary from experiment to experiment. Generally speaking, it should be recognized that MIC values often vary +/−2-fold from experiment to experiment. While a single MIC is reported for each compound and each microorganism, the reader should not conclude that each compound was only tested once. Several of the compounds were subjected to multiple tests. The data reported in Table 2 is reflective of the compounds relative activity and different MICs may have been generated on these occasions in line with the guidelines described above.
The following bacterial strains were used in these MIC determinations: […]

The test system of series [11] is KP-3700, ESBL+ clinical isolate of Klebsiella pneumoniae. As to the kind of experiment: Minimum inhibitory concentration (MIC, CLSI), KP-3700. The series is classed as cell-based. The note with it: K. pneumoniae KP-3700; overnight incubation, lower of duplicate values; trifluoroacetate salt (Example 1 and PMB sulfate). The method, then:
as §2, §3, §4, §5
The following bacterial strains were used in these MIC determinations:
KP-3700 is an ESBL+clinical isolate of Klebsiella pneumoniae obtained in 2006; and […]

Setting [12] is: PA-1646, polymyxin-resistant clinical isolate of.
Setting [13] is: AB-1649, polymyxin-resistant clinical isolate of.
[14] abbreviates: A. baumannii AB-3167, overnight incubation, lower of duplicate values, trifluoroacetate salt (Example 1 and PMB sulfate).
Setting [15] is: P. aeruginosa PA-1646, tested as trifluoroacetate salt (Example 1 and PMB as sulfate salt).
Setting [16] is: A. baumannii AB-1649, overnight incubation, lower of duplicate values, trifluoroacetate salt (Example 1 and PMB sulfate).
[17] abbreviates: P. aeruginosa PA-1646, overnight incubation, lower of duplicate values, trifluoroacetate salt (Example 1 and PMB sulfate).
Where [18] appears, read: P. aeruginosa PA01, overnight incubation, lower of duplicate values, trifluoroacetate salt (Example 1 and PMB sulfate).
[19] abbreviates: A. baumannii AB-1649, tested as trifluoroacetate salt (Example 1 and PMB as sulfate salt).
Where [20] appears, read: hRPTEC, 24 hours treatment, LDH release, Toxic Concentration 50%, read-out: hRPTEC TC50.

Where two headings read alike, the source gives them in different places. Bridge positions count the residues as written; N and C are the ends. Square brackets hold non-standard residues; d marks the D form. Peptide text beside a SMILES is read from it. * marks the point of attachment. Isonicotinoyl(2-Ph) = O=C(c1ccnc(-c2ccccc2)c1)*; X1 = CC[C@H](C)CCCCC(=O)*; Dab = NCC[C@H](N)C(=O)O; Dap = NC[C@H](N)C(=O)O

Regarding `CC(C)C[C@@H]1NC(=O)[C@@H](Cc2ccccc2)NC(=O)[C@H](CCN)NC(=O)[C@@H](NC(=O)[C@H](CN)NC(=O)[C@@H](NC(=O)[C@H](CCN)NC(=O)c2ccnc(-c3ccccc3)c2)[C@@H](C)O)CCNC(=O)[C@H]([C@@H](C)O)NC(=O)[C@H](CCN)NC(=O)[C@H](CCN)NC1=O` [Example 1] ({Isonicotinoyl(2-Ph)}-[Dab]T[Dap][Dab][Dab][dF]L[Dab][Dab]T; lactam 4-C), the “PA-1646 MBC” value in [1] (setting [12]) came to 4 µg/mL. Further, in series [2] (setting [13]), the “AB-1649 MIC” value came out at 1 µg/mL. Also, in [3] (AB-3167, clinical isolate of), the “AB-3167 MIC” value turned out to be 0.25 µg/mL. Moreover, the “PA-1646 MIC” value in [4] (setting [12]) is 2 µg/mL. For the same compound, the “PA01 MIC” value in [5] (strain) was 0.25 µg/mL. Also, the “AB-1649 MBC” value in [6] (setting [13]) came out at 1 µg/mL. Further, in [7], the “EC-1 MIC” value is 0.125 µg/mL. For the same compound, in series [8], the CC50 at 24 h amounted to 95 µM. In series [9], the “reduced human renal cytotoxicity compared with PMB” value is given as 4-5 fold.

`CC[C@H](C)CCCCC(=O)N[C@@H](CCN)C(=O)N[C@H](C(=O)N[C@@H](CN)C(=O)N[C@H]1CCNC(=O)[C@H]([C@@H](C)O)NC(=O)[C@H](CCN)NC(=O)[C@H](CCN)NC(=O)[C@H](CC(C)C)NC(=O)[C@@H](Cc2ccccc2)NC(=O)[C@H](CCN)NC1=O)[C@@H](C)O` [Example 43] (X1-[Dab]T[Dap][Dab][Dab][dF]L[Dab][Dab]T; lactam 4-C): the “PA-1646 MBC” value in series [1] (setting [12]) was found to be 2 µg/mL. For the same compound, the “AB-1649 MIC” value in series [2] (setting [13]) was 4 µg/mL. The “AB-3167 MIC” value in series [3] (setting [14]) came to 0.125 µg/mL. In addition, in series [4] (setting [12]), the “PA-1646 MIC” value was found to be 1 µg/mL. Besides, in series [5] (strain), the “PA01 MIC” value came to 0.5 µg/mL. The “AB-1649 MBC” value in series [6] (setting [13]) turned out to be 4 µg/mL. Further, in [7], the “EC-1 MIC” value came to 0.125 µg/mL. This compound also yielded a CC50 at 24 h in series [8] of 72 µM. For the same compound, the “reduced human renal cytotoxicity compared with PMB” value in [9] is on record as 3-4 fold.

Regarding `CC[C@H](C)CCCCC(=O)N[C@@H](CCN)C(=O)N[C@H](C(=O)N[C@@H](CCN)C(=O)N[C@H]1CCNC(=O)[C@H]([C@@H](C)O)NC(=O)[C@H](CCN)NC(=O)[C@H](CCN)NC(=O)[C@H](CC(C)C)NC(=O)[C@@H](Cc2ccccc2)NC(=O)[C@H](CCN)NC1=O)[C@@H](C)O` [PMB1, polymyxin B1, reference compound] (X1-[Dab]T[Dab][Dab][Dab][dF]L[Dab][Dab]T; lactam 4-C), the “PA-1646 MBC” value in series [1] (setting [15]) was found to be 16 µg/mL. The “AB-1649 MIC” value in series [2] (setting [16]) was found to be 4 µg/mL. Further, the “AB-3167 MIC” value in series [3] (setting [14]) came out at 0.25 µg/mL. Also, the “PA-1646 MIC” value in series [4] (setting [17]) came to 4 µg/mL. In [5] (setting [18]), the “PA01 MIC” value was found to be 0.5 µg/mL. In addition, the “AB-1649 MBC” value in [6] (setting [19]) was found to be 4 µg/mL. For the same compound, the “KP-5016 MIC” value in series [10] stood at 16 µg/mL. For the same compound, in [11], the “KP-3700 MIC” value worked out at 0.5 µg/mL. Moreover, the “EC-1 MIC” value in series [7] came out at 0.125 µg/mL. Besides, the CC50 at 24 h in series [8] (setting [20]) worked out at 28 µM.

As for polymyxin B [PMB, reference compound], the “PA-1646 MBC” value in [1] (setting [15]) was determined as 32 µg/mL. The “AB-1649 MIC” value in series [2] (setting [16]) was 8 µg/mL. For the same compound, the “AB-3167 MIC” value in [3] (setting [14]) stood at 0.25 µg/mL. Moreover, the “PA-1646 MIC” value in series [4] (setting [17]) is 8 µg/mL. For the same compound, in [5] (setting [18]), the “PA01 MIC” value was 0.5 µg/mL. Moreover, in series [6] (setting [19]), the “AB-1649 MBC” value amounted to 8 µg/mL. Besides, in [10], the “KP-5016 MIC” value was found to be 32 µg/mL. Further, in series [11], the “KP-3700 MIC” value was determined as 0.25 µg/mL. The “EC-1 MIC” value in series [7] was found to be 0.125 µg/mL. Besides, in series [9] (setting [20]), the CC50 turned out to be 20 µM.
